Source: article PMC10590056, “Design and synthesis of cabotegravir derivatives bearing 1,2,3-triazole and evaluation of anti-liver cancer activity” (Frontiers in Pharmacology, 2023)
Where “and” joins values, the source holds several entries; their conditions need not be identical. Equal entries are not always repeated. Where two headings read alike, the source gives them in different places.

Legend:
Format in all cases: cell-based
HeLa cells = test: MTT assay for cell proliferation, HeLa; parameters: key to Inhibitory rate: inhibition rate = 1 - mean A490 sample/mean A490 control (fraction)
How it was run: (§1)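 Proliferation read-out is MTT reduction (4 h) after 48 h treatment with KJ-5 or KJ-12 across 0, 1, 2, 4, 8, 16 and 32 μM. Cultures in 10% FBS DMEM, 37 °C, plated at 10^5 cells/mL; A490 of DMSO-dissolved formazan compared with untreated control.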

MCF-7 cells = test: MTT assay for cell proliferation, MCF-7; parameters: key to Inhibitory rate / Inhibition rate: inhibition rate = 1 - mean A490 sample/mean A490 control (fraction)
How it was run: as §1

normal hepatic cells L02 = test: MTT inhibition rate in normal hepatic cells L02; conditions: for Average OD / Inhibitory rate / ODtreated/ODcontrol: L02 cells, 3 repeat experiments; for Average OD: average of 5 wells; for Inhibitory rate / ODtreated/ODcontrol: fraction
HepG2 cells [1] = test: DAPI staining for cell apoptosis (morphology); conditions: HepG2, 2, 4, 8 μM, 24 h
Description: Apoptotic morphological changes were determined by DAPI staining. HepG2 cells were seeded in a 48-well plate and treated with different concentrations of KJ-5 and KJ-12 (2, 4, and 8 μM) for 24 h. After 24 h, they were then washed with PBS and fixed with 4% paraformaldehyde for 20 min. Subsequently, they were then washed with PBS and treated with DAPI (10 μg/mL) at 37°C for 5 min. After washing with PBS, the cells were resuspended in PBS for the rest of the experiment. A fluorescence microscope was used to observe the apoptotic morphological changes.

HepG2 cells [2] = test: Cell cycle analysis (PI, flow cytometry); conditions: 24 h
Description: HepG2 cells were seeded in a 6-well plate at a density of 5 × 10^6 cells/well and treated with either KJ-5 or KJ-12 at concentrations of 2, 4, or 8 μM for 24 h. Cells were then collected and responded in […] of cold PBS. Subsequently, 700 μL of cold 70% ethanol was added to the cells and gently mixed by inversion on ice for 1 h. Cells were then centrifuged at 2,000 rpm for 10 min, washed once with 2 mL of cold PBS, and the supernatant was discarded. The cell pellet was resuspended in 250 μL of cold PBS, followed by the addition of 10 μL of RNase at a final concentration of 0.4 mg/mL and incubated at 37°C for 30 min. An additional 250 μL of PBS was added, followed by the addition of 5 μL of PI solution at a final concentration of 10 μg/mL. The samples were incubated […] in the dark overnight at 4°C. Finally, the samples were analyzed by flow cytometry.

[3] = MCF-7, fraction, per experiment

With `COc1c2n(cc(C(=O)Nc3cccc(-c4cn(-c5c(C)cc(C)cc5C)nn4)c3)c1=O)C[C@H]1OC[C@H](C)N1C2=O` [KJ-12] the Inhibitory rate (HeLa cells; Hela, group 1 (concentration), fraction, single experiments) was 0.2971 and 0.2883 and 0.2551, the ODtreated/ODcontrol (HeLa cells; Hela, group 1 (concentration), single experiments) was 0.7029 and 0.7117 and 0.7449 and the Inhibitory rate (HeLa cells; Hela, group 2 (concentration), fraction, single experiments) was 0.3155 and 0.3221 and 0.3198. The ODtreated/ODcontrol (HeLa cells; Hela, group 2 (concentration), single experiments) was 0.6845 and 0.6779 and 0.6802, the Inhibitory rate (HeLa cells; Hela, group 4 (concentration), fraction, single experiments) was 0.3594 and 0.3533 and 0.3688 and the ODtreated/ODcontrol (HeLa cells; Hela, group 4 (concentration), single experiments) was 0.6406 and 0.6467 and 0.6312. The Inhibitory rate (HeLa cells; Hela, group 8 (concentration), fraction, single experiments) was 0.7153 and 0.627 and 0.5661, the ODtreated/ODcontrol (HeLa cells; Hela, group 8 (concentration), single experiments) was 0.2847 and 0.373 and 0.4339 and the Inhibitory rate (HeLa cells; Hela, group 16 (concentration), fraction, single experiments) was 0.7226 and 0.7292 and 0.7302. For the same compound, the ODtreated/ODcontrol (HeLa cells; Hela, group 16 (concentration), single experiments) was 0.2774 and 0.2708 and 0.2698, the Inhibitory rate (HeLa cells; Hela, group 32 (concentration), fraction, single experiments) was 0.7312 and 0.7755 and 0.8162 and the ODtreated/ODcontrol (HeLa cells; Hela, group 32 (concentration), single experiments) was 0.2688 and 0.2245 and 0.1838. For the same compound, the IC50 (HeLa cells; Hela, one of three experiments, unit inferred, read-out: IC50, single experiment, Hela) was 5.49 µM and 4.82 µM, the Inhibitory rate (HeLa cells; Hela, fraction, per experiment) was 0.7218 and 0.7353 and 0.6986 and the ODtreated/ODcontrol (HeLa cells; Hela, fraction, per experiment) was 0.2782 and 0.2647 and 0.3014. For the same compound, the IC50 (HeLa cells; Homo sapiens, HeLa, 48 h, HeLa, 48 h, MTT, read-out: IC50 HeLa) was 5.17 ± 0.34 µM, the IC50 (HeLa cells; Homo sapiens, HeLa, one of three experiments, unit inferred, read-out: IC50, single experiment, Hela) was 5.19 µM and the inhibition at 16 µM (HeLa cells; Homo sapiens, preliminary screening, Hela, 16 μM, 48 h, mean±SD, unit inferred, read-out: Inhibition rate (16μM), 48 h, Hela) was 71.9 ± 1.86%. The IC50 (MCF-7 cells; Homo sapiens, MCF7, 48 h, MCF-7, 48 h, MTT, read-out: IC50 MCF-7) was 8.55 ± 0.6 µM, the IC50 (MCF-7 cells; Homo sapiens, MCF7, MCF-7, one of three experiments, unit inferred, read-out: IC50, single experiment, MCF-7) was 9.23 µM and the inhibition at 16 µM (MCF-7 cells; Homo sapiens, MCF7, preliminary screening, MCF-7, 16 μM, 48 h, mean±SD, unit inferred, read-out: Inhibition rate (16μM), 48 h, MCF-7) was 54.7 ± 1.79%. The Inhibitory rate (MCF-7 cells; MCF-7, group 1 (concentration), fraction, single experiments) was 0.2053 and 0.2025 and 0.1943, the ODtreated/ODcontrol (MCF-7 cells; MCF-7, group 1 (concentration), single experiments) was 0.7947 and 0.7975 and 0.8057 and the Inhibitory rate (MCF-7 cells; MCF-7, group 2 (concentration), fraction, single experiments) was 0.2385 and 0.2481 and 0.2879. For the same compound, the ODtreated/ODcontrol (MCF-7 cells; MCF-7, group 2 (concentration), single experiments) was 0.7615 and 0.7519 and 0.7121, the Inhibitory rate (MCF-7 cells; MCF-7, group 4 (concentration), fraction, single experiments) was 0.3137 and 0.3313 and 0.3802 and the ODtreated/ODcontrol (MCF-7 cells; MCF-7, group 4 (concentration), single experiments) was 0.6863 and 0.6687 and 0.6198. For the same compound, the Inhibitory rate (MCF-7 cells; MCF-7, group 8 (concentration), fraction, single experiments) was 0.4877 and 0.4713 and 0.472, the ODtreated/ODcontrol (MCF-7 cells; MCF-7, group 8 (concentration), single experiments) was 0.5123 and 0.5287 and 0.528 and the Inhibitory rate (MCF-7 cells; MCF-7, group 16 (concentration), fraction, single experiments) was 0.5949 and 0.6244 and 0.5636. For the same compound, the ODtreated/ODcontrol (MCF-7 cells; MCF-7, group 16 (concentration), single experiments) was 0.4051 and 0.3756 and 0.4364, the Inhibitory rate (MCF-7 cells; MCF-7, group 32 (concentration), fraction, single experiments) was 0.7215 and 0.7706 and 0.7971 and the ODtreated/ODcontrol (MCF-7 cells; MCF-7, group 32 (concentration), single experiments) was 0.2785 and 0.2294 and 0.2029. The IC50 (MCF-7 cells; MCF-7, one of three experiments, unit inferred, read-out: IC50, single experiment, MCF-7) was 8.35 µM and 8.08 µM, the Inhibitory rate (MCF-7 cells; [3]) was 0.5407 and the ODtreated/ODcontrol (MCF-7 cells; [3]) was 0.4593. The Inhibitory rate (MCF-7 cells; given as fraction, second of three experiments) was 0.5326, the Inhibition rate (MCF-7 cells; given as fraction, third of three experiments) was 0.5669 and the ODtreated/ODcontrol (MCF-7 cells; second of three experiments) was 0.4674. For the same compound, the ODtreated/ODcontrol (MCF-7 cells; third of three experiments) was 0.4331, the inhibition at 1 µM (normal hepatic cells L02; Homo sapiens, L02, 48 h, L02, 1 μM, 48 h) was 10.8 ± 0.95% and the inhibition at 2 µM (normal hepatic cells L02; Homo sapiens, L02, 48 h, L02, 2 μM, 48 h) was 13.6 ± 0.75%. It also gave an inhibition at 4 µM (normal hepatic cells L02; Homo sapiens, L02, 48 h, L02, 4 μM, 48 h) of under 20%, an inhibition at 8 µM (normal hepatic cells L02; Homo sapiens, L02, 48 h, L02, 8 μM, 48 h) of 22.3 ± 2.93% and an inhibition at 16 µM (normal hepatic cells L02; Homo sapiens, L02, 48 h, L02, 16 μM, 48 h) of 30.5 ± 1.2%. For the same compound, the “Average OD” value (normal hepatic cells L02; Group 1) was 1.123 and 1.0994 and 0.8196, the Inhibitory rate (normal hepatic cells L02; Group 1) was 0.1145 and 0.1117 and 0.09678 and the ODtreated/ODcontrol (normal hepatic cells L02; Group 1) was 0.8855 and 0.8883 and 0.9032. For the same compound, the “Average OD” value (normal hepatic cells L02; Group 2) was 1.1022 and 1.0518 and 0.793, the Inhibitory rate (normal hepatic cells L02; Group 2) was 0.1433 and 0.1281 and 0.1359 and the ODtreated/ODcontrol (normal hepatic cells L02; Group 2) was 0.8567 and 0.8719 and 0.8641. The “Average OD” value (normal hepatic cells L02; Group 4) was 1.0412 and 1.0106 and 0.783, the Inhibitory rate (normal hepatic cells L02; Group 4) was 0.1541 and 0.1764 and 0.1697 and the ODtreated/ODcontrol (normal hepatic cells L02; Group 4) was 0.8459 and 0.8236 and 0.8303. For the same compound, the “Average OD” value (normal hepatic cells L02; Group 8) was 1.0104 and 0.9056 and 0.7302, the Inhibitory rate (normal hepatic cells L02; Group 8) was 0.2111 and 0.2008 and 0.256 and the ODtreated/ODcontrol (normal hepatic cells L02; Group 8) was 0.7889 and 0.7992 and 0.744. For the same compound, the “Average OD” value (normal hepatic cells L02; Group 16) was 0.8912 and 0.8512 and 0.6312, the Inhibitory rate (normal hepatic cells L02; Group 16) was 0.3181 and 0.295 and 0.3007 and the ODtreated/ODcontrol (normal hepatic cells L02; Group 16) was 0.6819 and 0.705 and 0.6993. The “Average OD” value (normal hepatic cells L02; Group 32) was 0.7446 and 0.6962 and 0.5126, the Inhibitory rate (normal hepatic cells L02; Group 32) was 0.4462 and 0.411 and 0.428 and the ODtreated/ODcontrol (normal hepatic cells L02; Group 32) was 0.5538 and 0.589 and 0.572. The “Apoptotic morphological changes, DAPI staining” value (HepG2 cells [1]) was “cell shrinkage, nuclear condensation, and chromatin fragmentation”, the “Percentage of cells in the G1 phase” value (HepG2 cells [2]; HepG2, 2 μM) was 47.4% and the “Percentage of cells in the G2/M phase” value (HepG2 cells [2]; HepG2, 2 μM) was 22.2%. For the same compound, the “Percentage of cells in the G1 phase” value (HepG2 cells [2]; HepG2, 4 μM) was 25%, the “Percentage of cells in the G2/M phase” value (HepG2 cells [2]; HepG2, 4 μM) was 47.5% and the “Percentage of cells in the G1 phase” value (HepG2 cells [2]; HepG2, 8 μM) was 16.4%. For the same compound, the “Percentage of cells in the G2/M phase” value (HepG2 cells [2]; HepG2, 8 μM) was 59.7% and the “Percentage of cells in the S phase (change vs control)” value (HepG2 cells [2]; HepG2, 2-8 μM) was “remained unchanged substantially”.
